As usually defined, the IC50 is the point on the concentration scale where inhibition reaches its midpoint. In general, Kd refers to the free concentration of one partner at which half of the binding sites on the other are occupied at equilibrium, for simple one-to-one binding. Broadly, the half-life is how long it takes for the measured level to halve.

Structures can show the parent of a compound that is named as a salt. Where two headings read alike, the source gives them in different places. Some results are limits rather than exact numbers.

The source of these data is patent US8916552B2, “Pharmaceutical combinations” (Astex Therapeutics Limited, priority 2006, dated 2014).

A short description of data set [1]: Hygroscopicity and rate of solubility of salt forms of compound of formula (1). The class given is physicochemical.
The conditions of data set [2]: antitumour agent; cited from earlier work.
In a further data set the test system is HCT116 cell line. The data set is described as follows: Anti-proliferative activity, Alamar Blue assay. In kind it is cell-based. The note with it: Homo sapiens, HCT-116, 72 h, read-out: IC50 against the HCT116 cell line. Here is the method: The anti-proliferative activities of compounds for use in the combinations of the invention can be determined by measuring the ability of the compounds to inhibition of cell growth in a number of cell lines such as the human colon cancer cell line HCT116. […] The method is based on the ability of viable cells to reduce resazurin to its fluorescent product resorufin. […] The number of viable cells is determined by Alamar Blue assay as before. Cell lines can be obtained from the ECACC (European Collection of cell Cultures).
(In general: The colour change of resazurin is a common sign of viable cells or microbes.)

Data set [3] has as its target T1, Human Hsp90α N-terminal domain (Homo sapiens, UniProt P07900).
T1 construct: purification of the Human Hsp90α N-terminal domain were performed according to published methods; made in house
Kind of data set: Isothermal titration calorimetry (ITC) binding to Hsp90. The note with it: pH 7.4. Here is the method: The ability of the compounds for use in the combinations of the invention to bind to human Hsp90 proteins was determined using isothermal titration calorimetry.
Isothermal titration calorimetry (ITC) experiments were performed with a VP-ITC titration calorimeter (Microcal Inc., Northampton, Mass., USA). […] All solutions were filtered and degassed prior to a titration being carried out. The enthalpy change resulting from each injection of ligand was obtained through integration of the calorimetric signal. Data were analysed using Origin 7.0 (Microcal Software Inc., Northampton, Mass.). Heats of dilution were estimated using the final injections of each individual titration and subtracted before data fitting. Different ITC experimental formats were employed in order to obtain compound dissociation constants (Kd's) over a wide range of affinities. […] In this type of experiment the stoichiometry parameter (N) was locked at 1 for data fitting.
Background: Isothermal titration calorimetry measures the heat released or taken up as one component is titrated into another.

The format of data set [4] is physicochemical. The text has this: Samples for X-ray powder diffraction (XRPD) data collection were gently ground by marble mortar and loaded into a crystallographic capillary (from Hampton Research, Quartz or Glass Type 10, 0.4 or 0.7 mm diameter). Diffraction patterns were collected at room temperature using CuKα radiation (λ=1.5418 Å) from a Rigaku rotating anode RU3HR, Osmic blue confocal optics, ¼ c goniometer and a Rigaku HTC image plate detector. 2D Images were collected while spinning φ axis with a detector to crystal distance of 250 mm. Data collection was controlled by CrystalClear software and 2D images were converted to 1D plot (2θ vs. Intensity) by Datasqueeze (intensity averaged over the azimuthal angle 0<χ<360° for 2θ range 3-30° in 0.02° steps). In house program AstexXRP was used for manipulation and visualisation of 1D XRPD patterns.
It is nominally a tri-hydrate because there are 3 crystal water positions in the asymmetric unit, but they are not 100% occupied at room temperature and laboratory humidity. A saturated solution of form FL1 in methanol:water 9:1 was prepared at room temperature. Slow precipitation with approximately 4 volumes of acetone gave form FL2 which is stable in air.
A saturated solution of form FL1 in THF was prepared at room temperature. Slow precipitation with approximately 4 volumes of heptane gave form FL3.

Data set [5] in a line: Solid-state stability of crystalline L-lactate forms of compound of formula (1). The class given is physicochemical. The note with it: lactic acid salts of compound of formula (1). The text has this: The term ‘stable’ or ‘stability’ as used herein includes chemical stability and solid state (physical) stability. The term ‘chemical stability’ means that the compound can be stored in an isolated form, or in the form of a formulation in which it is provided in admixture with for example, pharmaceutically acceptable carriers, diluents or adjuvants as described herein, under normal storage conditions, with little or no chemical degradation or decomposition’ for example for a period of six months or more, more usually twelve months or more, for example eighteen months or more. ‘Solid-state stability’ means the compound can be stored in an isolated solid form, or the form of a solid formulation in which it is provided in admixture with, for example, pharmaceutically acceptable carriers, diluents or adjuvants as described herein, under normal storage conditions, with little or no solid-state transformation (e.g. hydration, dehydration, solvatisation, desolvatisation, crystallisation, recrystallisation or solid-state phase transition).

A further data set concerns PKC. The note with it: data published 2002; read-out: IC50, inhibition of PKC activity; cited from earlier work.
The test system of another data set is PKA. The note with it: data published 2002; read-out: IC50, inhibition of PKA activity; cited from earlier work.
A further data set has as its system PKG. The note with it: data published 2002; read-out: IC50, inhibition of PKG activity; cited from earlier work.
The test system of the next data set is OVCAR-3 tumour cells. The note with it: OVCAR-3 tumour cells in which PKB is amplified; concentrations of 50 and 100 microM; cited from earlier work.
For data set [6] the following is noted: mice; doses 10 times more than were needed for antitumour activity; cited from earlier work.
The subject of data set [7] is Acute Promyelocytic Leukemia (APL). As to conditions: cited from earlier work.
The subject of data set [8] is P-glycoprotein-overexpressing subline of leukemic cell line CCRF-CEM. As to conditions: P-glycoprotein-overexpressing subline of CCRF-CEM (Chou et al. 1998); cited from earlier work.
The conditions of data set [9]: clinical studies; cited from earlier work.

For `CC(C)c1cc(C(=O)N2Cc3ccc(CN4CCN(C)CC4)cc3C2)c(O)cc1O` [(2,4-dihydroxy-5-isopropyl-phenyl)-[5-(4-methyl-piperazin-1-ylmethyl)-1,3-dihydro-isoindol-2-yl]-methanone L-lactate salt], in [1], the hygroscopicity result is given as “non-hygroscopic”. Besides, in [1] (compared with free base and other salts tested (hydrochloric acid, sulphuric acid)), the rate of solubility entry was “better rate of solubility than the free base and other salts tested”. For the compound `CCN[C@H]1CO[C@@H](O[C@H]2[C@H](O[C@H]3C#C/C=C\C#C[C@]4(O)CC(=O)C(NC(=O)OC)=C3/C4=C\CSSSC)O[C@H](C)[C@@H](NO[C@H]3C[C@H](O)[C@H](SC(=O)c4c(C)c(I)c(O[C@@H]5O[C@@H](C)[C@H](O)[C@@H](OC)[C@H]5O)c(OC)c4OC)[C@@H](C)O3)[C@@H]2O)C[C@@H]1OC` [Calicheamicin], in [2], the “potency relative to adriamycin” value is recorded as “over 1,000 times”.

As for `CC(C)c1cc(C(=O)N2Cc3ccccc3C2)c(O)cc1O` [Example 5, (1,3-Dihydro-isoindol-2-yl)-(2,4-dihydroxy-5-isopropyl-phenyl)-methanone], the IC50 in the data set with HCT116 cell line was below 1 µM. Take `CC(C)c1cc(C(=O)N2Cc3ccc(C(=O)N4CCNCC4)cc3C2)c(O)cc1O` [Example 54, (2,4-dihydroxy-5-isopropyl-phenyl)-[5-(piperazine-1-carbonyl)-1,3-dihydro-isoindol-2-yl]-methanone hydrochloride]: the concentration for half-maximal inhibition (IC50) in the data set on HCT116 cell line was below 1 µM. On to `CC(C)c1cc(C(=O)N2Cc3ccc(CN4CCN(C)CC4)cc3C2)c(O)cc1O` [Example 55, (2,4-dihydroxy-5-isopropyl-phenyl)-[5-(4-methyl-piperazin-1-ylmethyl)-1,3-dihydro-isoindol-2-yl]-methanone], for which the equilibrium dissociation constant (Kd) in [3] is below 0.1 µM. As to `CC(C)c1cc(C(=O)N2Cc3ccc(CN4CCN(C)CC4)cc3C2)c(O)cc1O` [FL1, (2,4-dihydroxy-5-isopropyl-phenyl)-[5-(4-methyl-piperazin-1-ylmethyl)-1,3-dihydro-isoindol-2-yl]-methanoneL-lactate], in [4], the “stability of crystal form at 40° C. and 75% RH” value is “stable in air and at 40 °C and 75% RH for at least one month”; the “stability of crystal form in air” value is on record as “stable in air”. Besides, the “stability of crystalline form” value in [5] is on record as “stable”. As to `CC(C)c1cc(C(=O)N2Cc3ccc(CN4CCN(C)CC4)cc3C2)c(O)cc1O` [FL2, (2,4-dihydroxy-5-isopropyl-phenyl)-[5-(4-methyl-piperazin-1-ylmethyl)-1,3-dihydro-isoindol-2-yl]-methanoneL-lactate], the “stability of crystal form in air” value in data set [4] is “stable in air”. In data set [5], the “stability of crystalline form” value is given as “stable”. As to `CC(C)c1cc(C(=O)N2Cc3ccc(CN4CCN(C)CC4)cc3C2)c(O)cc1O` [FL3, (2,4-dihydroxy-5-isopropyl-phenyl)-[5-(4-methyl-piperazin-1-ylmethyl)-1,3-dihydro-isoindol-2-yl]-methanoneL-lactate], in data set [4] (2 days), the “stability of crystal form in air” value is “transforms in air into form FL1”. Also, the “stability of crystalline form” value in data set [5] is on record as “unstable”. As to `O=S(=O)(NCCNCC=C(c1ccccc1)c1ccccc1)c1cccc2cnccc12` [NL-71-101], the half-inhibitory concentration (IC50) was 104 µM in the data set on PKC, 9 µM in the data set with PKA and 36 µM with PKG. Moreover, the induction of apoptosis result with OVCAR-3 tumour cells is “induced apoptosis”. As to `CCOC(=O)c1ccc2[nH]c3c(OC)c4[nH]c5ccc(C(=O)OCC)cc5c4cc3c2c1` [SR-13668], the “adverse effects in vivo” value in data set [6] is “no adverse effects”. On to `CC1=C(/C=C/C(C)=C/C=C/C(C)=C/C(=O)O)C(C)(C)CCC1` [Tretinoin, all-trans retinoic acid], for which, in [7], the “remissions induced in APL patients” value is 64-100%. `C/C1=C/C[C@@H](/C(C)=C/c2csc(C)n2)OC(=O)C[C@H](O)C(C)(C)C(=O)[C@H](C)[C@@H](O)[C@@H](C)CCC1` [desoxyepothilone B]: the 50% inhibitory concentration (IC50) in data set [8] was 0.017 µM. Turning to Perifosine [KRX-0401], the half-life in data set [9] is around 100 h.
